Read-outs that look alike come from different tables or passages of the source.
Columns and labels:
[1] = tested on: OTC; assay: OTC expression modulated by compounds, OTC/GeoMean of housekeeping genes, DMSO = 1 (Table 3A); type: cell-based, human; details: 10 uM final concentration
[2] = tested on: NAGS; type: cell-based, human
[3] = tested on: ARG1; assay: RNA-seq of compound-treated primary human hepatocytes, ARG1 expression; type: cell-based; details: for increase in ARG1 gene expression (Tables 17, 18, FIG. 9, 10): Example 11, relative mRNA vs DMSO
[4] = tested on: ASL; assay: RNA-seq of compound-treated primary human hepatocytes, ASL expression; type: cell-based; details: for Relative ASL level vs Untreated (±Standard Deviation): triplicate (Table 25, FIG. 17); for increase in ASL gene expression (Table 25, FIG. 17): Example 11, relative mRNA vs DMSO
[5] = tested on: urea cycle genes; assay: RNA-seq of primary human hepatocytes, compounds that modulate multiple urea cycle-related genes; type: cell-based
[6] = tested on: SLC25A15; assay: RNA-seq of compound-treated primary human hepatocytes, SLC25A15 expression; type: cell-based; details: for Relative SLC25A15 level vs Untreated (±Standard Deviation): primary human hepatocytes, triplicate (Table 24, FIG. 16A-B)
[7] = tested on: CPS1; assay: RNA-seq of compound-treated primary human hepatocytes, CPS1 expression; type: cell-based; details: for increase in CPS1 gene expression (Tables 19, 20, FIG. 11, 12): Example 11, relative mRNA vs DMSO
[8] = tested on: ASS1; assay: RNA-seq of compound-treated primary human hepatocytes, ASS1 expression; type: cell-based
[9] = tested on: OTC; assay: RNA-seq of compound-treated primary human hepatocytes, OTC expression; type: cell-based; details: for Relative OTC level vs Untreated (±Standard Deviation): triplicate (Table 14); for increase in OTC gene expression (Table 14, FIG. 6): Example 11, relative mRNA vs DMSO
[10] = tested on: CPS1; assay: JAK inhibitors at 0.3 and 3 μM in primary human hepatocytes, CPS1 mRNA fold change; type: cell-based; details: fold change vs DMSO
Protocol: (§1) Additional small molecules that inhibit JAK1, JAK2, JAK3, or a combination of the JAK proteins were tested in primary human hepatocytes as described in Example 2. JAK inhibitors were tested in triplicate at 0.3 μM and 3 μM. The results are shown as the fold change (mRNA FC) in the mRNA levels of OTC and CPS1 genes after treatment compared to an untreated control (DMSO) and the standard deviation (SD).

[11] = tested on: OTC; assay: JAK inhibitors at 0.3 and 3 μM in primary human hepatocytes, OTC mRNA fold change; type: cell-based; details: fold change vs DMSO
Protocol: as §1

[12] = 10 μM, primary human hepatocytes, triplicate (Table 17, FIG. 9)
[13] = 10 uM, primary human hepatocytes, triplicate (Table 18, FIG. 10)
[14] = 3 uM, primary human hepatocytes
[15] = 10 uM, primary human hepatocytes
[16] = 3 uM, primary human hepatocytes, triplicate (Table 20, FIG. 12)
[17] = 10 uM, primary human hepatocytes, triplicate (Table 20, FIG. 12)
[18] = 10 uM, primary human hepatocytes, triplicate (Table 15, FIG. 8)
[19] = 0.3 uM, primary human hepatocytes
[20] = 1 uM, primary human hepatocytes
[21] = primary human hepatocytes, RNA-seq
[22] = primary human hepatocytes, RNA-seq, urea cycle-related genes significantly increased (Table 10)
[23] = Example 11, relative mRNA vs DMSO

COc1cc2c(cc1OC)CN(C(=O)/C=C/c1c(-c3ccccc3)n(C)c3ncccc13)CC2 [SIS3]
Max Value (OTC/GeoMean of HKs; DMSO = 1) [1]: 1.46 | Fold change (Log 2) vs untreated, NAGS expression [2]: 0.64 Log 2

CNC[C@H](O)c1ccc(O)c(O)c1 [Epinephrine]
Fold change (Log 2) vs untreated, ARG1 expression [3]: 2.28 Log 2 | ASL expression, Fold change (Log 2) vs untreated [4]: 0.6 Log 2 | Up-regulated Genes [5]: CPS1, ASS1, ASL, ARG1, SLC25A15 | number of urea cycle genes whose expression was significantly up-regulated [5]: five | Fold change (Log 2) vs untreated, SLC25A15 expression [6]: 1.14 Log 2 | CPS1 expression, Fold change (Log 2) vs untreated [7]: 4.85 Log 2 | Fold change (Log 2) vs untreated, ASS1 expression [8]: 1.08 Log 2

CN(c1ncccc1CNc1nc(Nc2ccc3c(c2)CC(=O)N3)ncc1C(F)(F)F)S(C)(=O)=O [PF-00562271]
Relative ARGI level vs Untreated (±Standard Deviation) [3, 12]: 1.32 ± 0.33 | Relative ARGI level vs Untreated (±Standard Deviation) [3, 13]: 2.53 ± 0.36 | increase in ARG1 gene expression (Tables 17, 18, FIG. 9, 10) [3]: greatest increase | Relative ASL level vs Untreated (±Standard Deviation) [4, 14]: 2.09 ± 0.67 | Relative ASL level vs Untreated (±Standard Deviation) [4, 15]: 4.92 ± 1.05 | increase in ASL gene expression (Table 25, FIG. 17) [4]: greatest increase | Max Value (OTC/GeoMean of HKs; DMSO = 1) [1]: 3.3 | Relative OTC level vs Untreated (±Standard Deviation) [9, 14]: 3.27 ± 0.59 | Relative OTC level vs Untreated (±Standard Deviation) [9, 15]: 7.05 ± 1.14 | increase in OTC gene expression (Table 14, FIG. 6) [9]: greatest increase | Relative CPS1 level vs Untreated (±Standard Deviation) [7, 16]: 2.33 ± 0.58 | Relative CPS1 level vs Untreated (±Standard Deviation) [7, 17]: 4.70 ± 0.49 | increase in CPS1 gene expression (Tables 19, 20, FIG. 11, 12) [7]: greatest increase | Relative ASS1 level vs Untreated (±Standard Deviation) [8, 18]: 2.30 ± 0.41

Cc1cc(Nc2nc(N[C@@H](C)c3ncc(F)cn3)ncc2Cl)[nH]n1 [AZD1480]
CPS1 mRNA FC ([10]; 0.3 uM): 1.1 | CPS1 mRNA FC ([10]; 3 uM): 1.77 | Max Value (OTC/GeoMean of HKs; DMSO = 1) [1]: 1.46 | OTC mRNA FC ([11]; 0.3 uM): 1.63 | OTC mRNA FC ([11]; 3 uM): 2.3

O=C(NCCCNc1nc(Nc2cccc(CN3CCOCC3)c2)ncc1C1CC1)C1CCC1 [MRT67307]
Max Value (OTC/GeoMean of HKs; DMSO = 1) [1]: 1.68

Cl.Cn1c(=O)c(Oc2ccc(F)cc2F)cc2cnc(NC3CCOCC3)nc21 [R1487 Hydrochloride]
Relative SLC25A15 level vs Untreated (±Standard Deviation) ([6]; 1 μM): 1.56 ± 0.16 | Relative SLC25A15 level vs Untreated (±Standard Deviation) ([6]; 10 μM): 1.51 ± 0.09 | Max Value (OTC/GeoMean of HKs; DMSO = 1) [1]: 1.64

CSCC[C@H](N)C(=O)N[C@@]1(C(=O)O)CS(=O)(=O)[C@H]2[C@H](C(=O)O)[C@H]21 [pomaglumetad methionil]
Max Value (OTC/GeoMean of HKs; DMSO = 1) [1]: 1.49

CC1(C)CC(=O)c2c(C(F)(F)F)nn(-c3ccc(C(N)=O)c(N[C@H]4CC[C@H](OC(=O)CN)CC4)c3)c2C1 [PF-04929113 (SNX-5422)]
Max Value (OTC/GeoMean of HKs; DMSO = 1) [1]: 1.73

Cc1cc(-c2nc(-c3ccc(OC(F)(F)F)cc3)no2)nn1Cc1ccnc(N2CCN(C3CC3)CC2)c1 [BAY 87-2243]
Relative ARGI level vs Untreated (±Standard Deviation) ([3]; 0.3 μM, primary human hepatocytes, triplicate (Table 17, FIG. 9)): 1.36 ± 0.43 | Relative ARGI level vs Untreated (±Standard Deviation) ([3]; 1 μM, primary human hepatocytes, triplicate (Table 17, FIG. 9)): 1.98 ± 0.29 | Relative ARGI level vs Untreated (±Standard Deviation) ([3]; 3 μM, primary human hepatocytes, triplicate (Table 17, FIG. 9)): 2.06 ± 0.19 | Relative ARGI level vs Untreated (±Standard Deviation) [3, 12]: 2.03 ± 0.28 | Relative ARGI level vs Untreated (±Standard Deviation) [3, 13]: 5.64 ± 3.44 | increase in ARG1 gene expression (Tables 17, 18, FIG. 9, 10) [3]: greatest increase | Fold change (Log 2) vs untreated, ARG1 expression ([3]; primary human hepatocytes, RNA-seq (Table 7)): 1.09 Log 2 | Relative ASL level vs Untreated (±Standard Deviation) [4, 19]: 3.02 ± 0.25 | Relative ASL level vs Untreated (±Standard Deviation) [4, 20]: 7.50 ± 1.10 | Relative ASL level vs Untreated (±Standard Deviation) [4, 14]: 11.42 ± 6.31 | Relative ASL level vs Untreated (±Standard Deviation) [4, 15]: 12.28 ± 4.98 | increase in ASL gene expression (Table 25, FIG. 17) [4]: greatest increase | ASL expression, Fold change (Log 2) vs untreated [4, 21]: 0.58 Log 2 | number of urea cycle genes whose expression was significantly up-regulated [5, 21]: three | Up-regulated Genes [5, 22]: CPS1, ASL, ARG1 | Relative SLC25A15 level vs Untreated (±Standard Deviation) ([6]; 0.3 μM): 2.85 ± 0.23 | Relative SLC25A15 level vs Untreated (±Standard Deviation) ([6]; 1 μM): 2.40 ± 0.22 | Relative SLC25A15 level vs Untreated (±Standard Deviation) ([6]; 3 μM): 2.89 ± 0.37 | Relative SLC25A15 level vs Untreated (±Standard Deviation) ([6]; 10 μM): 2.70 ± 0.19 | Increase in SLC25A15 gene expression (qualitative) [6, 23]: greatest increase | Relative OTC level vs Untreated (±Standard Deviation) [9, 19]: 3.33 ± 0.60 | Relative OTC level vs Untreated (±Standard Deviation) [9, 20]: 5.61 ± 3.28 | Relative OTC level vs Untreated (±Standard Deviation) [9, 14]: 7.03 ± 3.84 | Relative OTC level vs Untreated (±Standard Deviation) [9, 15]: 6.18 ± 1.58 | increase in OTC gene expression (Table 14, FIG. 6) [9]: greatest increase | Relative CPS1 level vs Untreated (±Standard Deviation) ([7]; 0.3 uM, primary human hepatocytes, triplicate (Table 20, FIG. 12)): 3.32 ± 0.53 | Relative CPS1 level vs Untreated (±Standard Deviation) ([7]; 1 uM, primary human hepatocytes, triplicate (Table 20, FIG. 12)): 5.11 ± 1.08 | Relative CPS1 level vs Untreated (±Standard Deviation) ([7]; 3 μM, primary human hepatocytes, triplicate (Table 19, FIG. 11)): 1.41 ± 0.06 | Relative CPS1 level vs Untreated (±Standard Deviation) [7, 16]: 5.48 ± 3.12 | Relative CPS1 level vs Untreated (±Standard Deviation) [7, 17]: 5.69 ± 2.90 | increase in CPS1 gene expression (Tables 19, 20, FIG. 11, 12) [7]: greatest increase | CPS1 expression, Fold change (Log 2) vs untreated [7, 21]: 1.81 Log 2 | Relative ASS1 level vs Untreated (±Standard Deviation) ([8]; 0.3 μM, primary human hepatocytes, triplicate (Table 15, FIG. 7)): 2.79 ± 0.22 | Relative ASS1 level vs Untreated (±Standard Deviation) ([8]; 0.3 uM, primary human hepatocytes, triplicate (Table 15, FIG. 8)): 2.11 ± 0.33 | Relative ASS1 level vs Untreated (±Standard Deviation) ([8]; 1 μM, primary human hepatocytes, triplicate (Table 15, FIG. 7)): 3.10 ± 0.47 | Relative ASS1 level vs Untreated (±Standard Deviation) ([8]; 01 uM, primary human hepatocytes, triplicate (Table 15, FIG. 8)): 2.61 ± 0.57 | Relative ASS1 level vs Untreated (±Standard Deviation) ([8]; 3 μM, primary human hepatocytes, triplicate (Table 15, FIG. 7)): 2.38 ± 0.01 | Relative ASS1 level vs Untreated (±Standard Deviation) ([8]; 03 uM, primary human hepatocytes, triplicate (Table 15, FIG. 8)): 2.87 ± 1.80 | Relative ASS1 level vs Untreated (±Standard Deviation) ([8]; 10 μM, primary human hepatocytes, triplicate (Table 15, FIG. 7)): 2.99 ± 0.36 | Relative ASS1 level vs Untreated (±Standard Deviation) [8, 18]: 2.86 ± 1.48 | increase in ASS1 gene expression (Tables 15, 16, FIG. 7, 8) [8, 23]: greatest increase

N#CC(C#N)=NNc1cccc(Cl)c1 [CCCP]
Max Value (OTC/GeoMean of HKs; DMSO = 1) [1]: 4.06

COc1cccc2c1C(=O)c1c(O)c3c(c(O)c1C2=O)C[C@@](O)(/C(CO)=N/NC(=O)CCCCCN1C(=O)C=CC1=O)C[C@@H]3O[C@H]1C[C@H](N)[C@H](O)[C@H](C)O1 [INNO-206 (aldoxorubicin), aldoxorubicin]
number of urea cycle genes whose expression was significantly up-regulated [5, 21]: three | Up-regulated Genes [5, 22]: NAGS, ASS1, OTC | Max Value (OTC/GeoMean of HKs; DMSO = 1) [1]: 2.36 | Fold change (Log 2) vs untreated, NAGS expression ([2]; primary human hepatocytes, RNA-seq (Table 6)): 1.63 Log 2 | OTC expression, Fold change (Log 2) vs untreated [9, 21]: 0.87 Log 2 | Fold change (Log 2) vs untreated, ASS1 expression ([8]; primary human hepatocytes, RNA-seq (Table 4)): 0.58 Log 2

CNC(=O)c1ccc(C)c(-n2c(C)cc(OCc3ccc(F)cc3F)c(Br)c2=O)c1 [PH-797804]
Max Value (OTC/GeoMean of HKs; DMSO = 1) [1]: 1.53

From patent US11266655B2, “Methods and compositions for treating urea cycle disorders” (Camp4 Therapeutics Corporation, priority 2019, dated 2022)
